Source: publication PMC9804781, “Identification of a Novel Pseudo‐Natural Product Type IV IDO1 Inhibitor Chemotype” (Angewandte Chemie (International Ed. in English), 2022)
Like-named read-outs stand apart in the source and are kept apart here.

How the values were obtained:
Type in all cases: cell-based
IDO1 = IDO1 (Homo sapiens, UniProt P14902); assay: In-Cell CETSA for IDO1 in SKOV-3 cells; set-up: endogenous in cells; host or cells: SKOV-3 (IFN-γ induced); settings: 15 min
Protocol: SKOV-3 cells (1.25 x 10^6 cells/flask) were seeded in two T75 tissue culture flasks and incubated for 24 h prior to addition of 17.6 ng/mL IFN-γ and 10 µM succinylacetone (SA, heme synthesis inhibitor). After 24 h, cells were treated with the compound (C) or DMSO (V, vehicle) for 15 min at 37°C. Cells were detached with trypsin/EDTA and washed thrice in cold PBS after resuspension in cold PBS. C- and V-treated samples were distributed equally into ten tubes each and subjected to heating at different temperatures in the MasterCycler EpGradient S (Eppendorf SE, DE). Afterwards, NP-40 alternative was added to a final concentration of 0.4% (v/v) and cells were lysed by five consecutive freeze/thaw cycles. Soluble fractions were separated from denatured proteins by centrifugation at 100,000 x g and 4°C for 20 min. Supernatants were transferred to new tubes and subjected to immunoblot analysis.

[1] = test system: L-Trp uptake in BxPC-3 cells; assay: Trp uptake assay in BxPC-3 cells (HPLC-MS/MS); settings: BxPC-3 starved for L-Trp 72 h, ±IFN-γ; 5 mM L-Leu, 1 mM 1-MT, 5 µM compound
Protocol: GraphPad Prism 9.0 (GraphPad Software, Inc, US) to generate dose-response curves and obtain […]
IDO1 promoter reporter gene assay
HEK293T cells (25,000 cells/well) were reverse-transfected with pXPG-IDO1[16] (4 µg/96-well plate, kindly provided by Gina M. Doody, Leeds, UK) and pRL-TK (300 ng/96-well plate, Promega, US) using Lipofectamine™ 2000 (Invitrogen, USA) pri or to incubation for 24 h. Afterwards, cells were treated with 50 ng/mL IFN-γ and the compounds for 48 h. Luminescence generated by the Fluc reporter and the control reporter Rluc was measured using the Dual-Glo ® Luciferase Assay System (Promega, US) on the Spark® Multimode Microplate Reader (Tecan, AT). To determine the IDO1 promoter activity, Fluc signals were divided by Rluc signals and normalized to the values of the DMSO control. Data analysis was performed using a non-linear regression curve fit and […]
BxPC-3 cells (30,000 cells/well) were seeded in 96-well plates in Trp-free RPMI 1640 medium and incubated for 48 h prior addition of 50 ng/mL IFN-γ. Trp starvation was continued for another 24 h. Afterwards, medium was exchanged for Trp-free medium containing the control inhibitors 5 mM L-Leu (inhibitor of system-L amino acid transporters (LAT)), 1 mM 1-methyl-L-tryptophan (inhibitor of tryptophanyl-tRNA synthetase (TrpRS)) and compounds and cells were incubated for 30 min. Subsequently, 50 µM L-Trp was added and samples were incubated for another 30 min.
The supernatant was transferred to a new plate, trichloroacetic acid was added to a final concentration of 7% (v/v) and plates were incubated for 15 min at room temperature. Samples were centrifuged for 10 min at 1800 x g and L-Trp was quantified by HPLC-MS/MS using the LTQ Velos Pro and Dionex HPLC (Thermo Fisher Scientific, US). Data analysis was performed with Xcalibur™ (Thermo Fisher Scientific, US) and repres ented using GraphPad Prism 9.0 (GraphPad […]
RNA purification and RT-qPCR
HeLa cells (250,000 cells/well) were seeded in 6-well plates and incubated for 24 h prior addition of 50 ng/mL IFN-γ and compounds. […]

Kyn levels in HeLa cells = assay: Manual Kyn assay in HeLa cells (p-DMAB detection); settings: for IC50: IFN-γ, L-Trp, p-DMAB
Protocol: Mammalian cell lines were maintained at 37°C and 5% CO2 in a humidified atmosphere and sub-cultivated twice a week. All cell lines were tested regularly for mycoplasma contamination and were always free of mycoplasma. BxPC-3 cells (DSMZ#760) were grown in RPMI-1640 medium supplemented with 10% FBS, 2 mM L-glutamine, 1 mM sodium pyruvate, 4.5 g/L glucose, 10 mM HEPES and 1.5 g/L NaHCO3. HeLa cells (DSMZ#57) were cultivated in DMEM supplemented with 10% FBS, 4.5 g/L glucose, 4 mM L-glutamine 1 mM sodium pyruvate, 1% non-essential amino acids, 3.7 g/L NaHCO3. SKOV-3 cells (ATCC#HTB-77) were maintained in modified McCoy’s 5A medium supplemented with 10% FBS, 1.5 mM L-glutamine and 2.2 g/L NaHCO3. […]
For manual testing, BxPC-3, HeLa or SKOV-3 cells (20,000 cells/well, 5,000 cells/well or 6,250 cells/well, respectively) were seeded in 96-well plates (BxPC-3 and HeLa) or 384-well plates (SKOV-3) in medium without phenol red. After 24 h, the IDO1 pathway was induced by addition of 50 ng/mL (BxPC-3 and HeLa) or 17.6 ng/mL IFN-γ (SKOV-3) and 380 µM (BxPC-3), 164.15 µM (HeLa) or 450 µM L-Trp (SKOV-3) with simultaneous treatment with the compounds at the indicated concentrations followed by incubation for 48 h. For the hemin competition assay, hemin was added together with IFN-γ, L-Trp and the compounds. Subsequently, trichloroacetic acid was added to a final concentration of 7% (v/v), the plates were incubated for 15 min at room […]
temperature and centrifuged for 10 min at 1800 x g. Afterwards, an equal volume of freshly prepared 2% (w/v) p-DMAB in glacial acetic acid (Ehrlich reagent) was added prior to measuring the absorbance at 492 nm and 650 nm on the Spark® Multimode Microplate Reader (Tecan, AT).
To determine the Kyn levels, the absorbance of the Kyn-p-DMAB adduct A492 was subtracted by the background absorbance A650 and normalized to the DMSO control. Data analysis was performed using a non-linear regression curve fit and GraphPad Prism 9.0 (GraphPad Software, Inc, US) to generate dose-response curves and obtain IC50 values. […]
Subsequently, 10 mM ascorbic acid, 10 μM methylene blue, 2 mM L-Trp and 100 μg/mL catalase were added and samples were incubated for 60 min at room temperature or 37°C. […]

IDO1, sequence (P14902 whole entry): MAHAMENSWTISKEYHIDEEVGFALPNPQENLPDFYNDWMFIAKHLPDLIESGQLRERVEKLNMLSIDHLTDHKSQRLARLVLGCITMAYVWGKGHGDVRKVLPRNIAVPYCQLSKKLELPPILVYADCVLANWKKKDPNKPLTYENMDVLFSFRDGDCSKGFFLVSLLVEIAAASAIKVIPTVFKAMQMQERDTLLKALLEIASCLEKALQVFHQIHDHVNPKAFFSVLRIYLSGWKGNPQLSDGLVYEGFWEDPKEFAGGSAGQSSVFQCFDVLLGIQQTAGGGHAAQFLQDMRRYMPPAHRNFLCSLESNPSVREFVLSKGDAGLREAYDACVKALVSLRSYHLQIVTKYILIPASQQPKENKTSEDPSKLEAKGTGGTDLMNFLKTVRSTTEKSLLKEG

CCOC(=O)C1=CC[C@](C(=O)OC)(c2cc3ccccc3n2C)N(S(=O)(=O)c2ccc(C)cc2)[C@@H]1C(=O)OC(C)(C)C [Compound 3d]
CETSA shift in Tm of IDO1 (result in words) (IDO1; IFN-γ 24 h, 50 μM, no succinylacetone): did not lead to a shift
ΔTm at 30 µM (IDO1; SK-OV-3, IFN-γ and 10 μM succinylacetone 24 h, 30 μM, read-out: CETSA ΔTm of apo-IDO1): 7.9 ± 0.6 °C
uptake (import) of L-Trp [1]: does not interfere
fold less active than enantiopure apoxidole-1 (Kyn assay) (Kyn levels in HeLa cells): 72 fold
IC50 (Kyn levels in HeLa cells; Homo sapiens, HeLa, 48 h, 48 h, mean±SD, n=3, read-out: Kyn assay IC50 HeLa): 46.7 ± 2.4 nM
IC50 (Kyn levels in HeLa cells; 48 h, mean±SD, n=3, listed as apoxidole-1, read-out: Kyn assay IC50 HeLa): 46.7 ± 2.44 nM
IC50 (Kyn levels in HeLa cells; compounds 48 h, mean n=3 ±SD, listed as 3d^a, read-out: Kyn Assay IC50): 280 ± 40 nM
IC50 (Kyn levels in HeLa cells; compounds 48 h, mean n=3 ±SD, listed as 3d^ab, read-out: Kyn Assay IC50): 3410 ± 260 nM
IC50 (Kyn levels in HeLa cells; compounds 48 h, mean n=3 ±SD, listed as 3d^b, read-out: Kyn Assay IC50): 47 ± 2 nM
IC50 (Kyn levels in HeLa cells; compounds 48 h, mean n=3 ±SD, read-out: Kyn Assay IC50): 70 ± 10 nM
